Read-outs that look alike come from different tables or passages of the source.
Key:
[1] = molecular target: T1, recombinant EphA2 (Homo sapiens, UniProt P29317); experiment: In vitro EphA2 enzyme assay (Alphascreen, phosphorylation of biotin-poly-GAT); assay type: biochemical
T1 construct: amino acids 591-976; Swiss-Prot Acc; No. P29317; purchased ProQinase GmbH 0368-0000-1
T1 sequence (P29317 591-976): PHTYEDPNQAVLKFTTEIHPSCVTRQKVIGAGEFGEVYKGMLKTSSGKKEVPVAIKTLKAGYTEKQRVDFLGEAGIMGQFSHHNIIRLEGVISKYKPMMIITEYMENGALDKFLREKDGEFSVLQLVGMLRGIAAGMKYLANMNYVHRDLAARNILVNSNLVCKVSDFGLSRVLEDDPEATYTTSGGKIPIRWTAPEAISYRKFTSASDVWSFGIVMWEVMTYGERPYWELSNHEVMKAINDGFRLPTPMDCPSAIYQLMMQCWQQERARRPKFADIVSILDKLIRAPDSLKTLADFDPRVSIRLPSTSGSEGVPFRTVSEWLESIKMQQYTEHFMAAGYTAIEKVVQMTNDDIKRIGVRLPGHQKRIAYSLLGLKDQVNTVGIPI
Method: C) In vitro EphA2 Enzyme Assay
(§1) This assay detects inhibitors of EphA2-mediated phosphorylation of a polypeptide substrate using Alphascreen™ luminescence detection technology. Briefly, recombinant EphA2 was incubated with a biotinylated-polypeptide substrate (biotin-poly-GAT) in presence of magnesium-ATP. The reaction was stopped by addition of EDTA, together with streptavidin-coated donor beads which bind the biotin-substrate containing any phosphorylated tyrosine residues. Anti-phosphotyrosine antibodies present on acceptor beads bind to phosphorylated substrate, thus bringing the donor & acceptor beads into close proximity. Subsequent excitation of the donor beads at 680 nm generated singlet oxygen species that interact with a chemiluminescer on the acceptor beads, leading to light emission at 520-620 nm. The signal intensity is directly proportional to the level of substrate phosphorylation and thus inhibition is measured by a decrease in signal.
Test compounds were prepared as 10 mM stock solutions in DMSO (Sigma-Aldrich Company Ltd, Gillingham, Dorset SP8 4XT Catalogue No. 154938) and serially diluted with 5% DMSO to give a range of test concentrations at 6× the required final concentration. […]
The resulting assay signal was determined on the Perkin Elmer EnVision plate reader. […]

[2] = molecular target: T2, recombinant EphB4 (Homo sapiens, UniProt P54760); experiment: In vitro EphB4 enzyme assay (Alphascreen, phosphorylation of biotin-poly-GAT); assay type: biochemical; settings: * = tested once only, read-out: EphB4 enzyme assay Mean IC50 value
T2 construct: amino acids 563-987; Swiss-Prot Acc; No. P54760; purchased ProQinase GmbH 0178-0000-3
T2 sequence (P54760 563-987): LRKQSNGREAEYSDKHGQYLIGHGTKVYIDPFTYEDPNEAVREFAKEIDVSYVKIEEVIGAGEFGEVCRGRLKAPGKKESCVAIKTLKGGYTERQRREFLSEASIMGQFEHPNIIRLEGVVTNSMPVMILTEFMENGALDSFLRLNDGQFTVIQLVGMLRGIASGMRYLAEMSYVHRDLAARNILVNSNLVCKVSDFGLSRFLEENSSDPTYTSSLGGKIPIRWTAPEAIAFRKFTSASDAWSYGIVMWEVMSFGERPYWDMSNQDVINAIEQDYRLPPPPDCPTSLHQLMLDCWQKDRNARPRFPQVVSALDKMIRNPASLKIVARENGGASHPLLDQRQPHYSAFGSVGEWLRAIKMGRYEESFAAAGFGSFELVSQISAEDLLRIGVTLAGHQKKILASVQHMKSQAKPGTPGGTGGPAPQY
Method: A) In vitro EphB4 Enzyme Assay
as §1, with “EphB4-mediated” for “EphA2-mediated”, “EphB4” for “EphA2”
Aqueous Compound Preparation:
Acoustic Compound Preparation:
To ensure that each well contained a total of 120 nl DMSO the wells were all backfilled as required. […] The test range of compounds was 100× the required final concentration.
Assay plates were then incubated at room temperature for 1 hour.
For assays using compounds prepared via acoustic dispensing, the assay mix was adjusted such that the final assay volume of 12 ul contained the same concentration of reagent as 10 ul of assay mix used when aqueous compounds were tested.
The plates were sealed under natural lighting conditions, wrapped in aluminium foil and incubated in the dark for a further 20 hours.
The resulting assay signal was determined on the Perkin Elmer EnVision plate reader. The minimum value was subtracted from all values, and the signal plotted against compound concentration to generate IC50 data. The method used to generate the compound dilutions was recorded with the IC50 value in the database.

[3] = Method of compound preparation: Echo (acoustic dispensing)
[4] = Method of compound preparation: Genesis (aqueous compound preparation)

IC50 [1]	IC50 [2, 3]	IC50 [2, 4]	SMILES
131 nM	52 nM	170 nM	Clc1ccc2c(c1Nc1ccnc(Nc3cc(N4CCOCC4)ccn3)n1)OCO2 [Example 9, N′-(5-chloro-1,3-benzodioxol-4-yl)-N-(4-morpholino-2-2pyridyl)pyrimidine-2,4-diamine]
–	–	501 nM	Clc1ccc2c(c1Nc1ccnc(Nc3cc(N4CCOCC4)nc(N4CCOCC4)c3)n1)OCO2 [Example 1, N4-(5-chlorobenzo[d][1,3]dioxol-4-yl)-N2-(2,6-dimorpholinopyridin-4-yl)pyrimidine-2,4-diamine]
–	7 nM	973 nM	CN(c1ccnc(Nc2cc(Cl)cc(N3CCOCC3)n2)n1)c1cccc2[nH]ncc12 [Example 6, N-(4-chloro-6-morpholin-4-yl-pyridin-2-yl)-N′-(1H-indazol-4-yl)-N′-methyl-pyrimidine-2,4-diamine]
–	3 nM	146 nM	CN(c1ccnc(Nc2ccnc(N3CCOCC3)c2)n1)c1cccc2[nH]ncc12 [Example 4, N′-(1H-indazol-4-yl)-N′-methyl-N-(2-morpholin-4-ylpyridin-4-yl)pyrimidine-2,4-diamine]
–	4 nM	445 nM	CN(c1ccnc(Nc2cc(Cl)nc(N3CCOCC3)c2)n1)c1cccc2[nH]ncc12 [Example 8, N-(2-chloro-6-morpholin-4-yl-pyridin-4-yl)-N′-(1H-indazol-4-yl)-N′-methyl-pyrimidine-2,4-diamine]
–	–	605 nM	CN(c1ccnc(Nc2cc(N3CCOCC3)nc(N3CCOCC3)c2)n1)c1c(Cl)ccc2c1OCO2 [Example 2, N4-(5-chlorobenzo[d][1,3]dioxol-4-yl)-N2-(2,6-dimorpholinopyridin-4-yl)-N4-methylpyrimidine-2,4-diamine]
566 nM	64 nM	817 nM	Clc1ccc2c(c1Nc1ccnc(Nc3cccc(N4CCOCC4)n3)n1)OCO2 [Example 10, N′-(5-chloro-1,3-benzodioxol-4-yl)-N-(6-morpholino-2-pyridyl)pyrimidine-2,4-diamine]
–	–	6440 nM	Cc1nc(Nc2nccc(Nc3c(Cl)ccc4c3OCO4)n2)cc(N2CCN(C)CC2)n1 [Example 12, N′-(5-chloro-1,3-benzodioxol-4-yl)-N-[2-methyl-6-(4-methylpiperazin-1-yl)pyrimidin-4-yl]pyrimidine-2,4-diamine]

Source: patent US7718653B2, “Pyrimidine derivatives for inhibiting Eph receptors” (AstraZeneca AB, priority 2007, dated 2010)
